Test results: paper PMC10641921, “Optimization of mTOR Inhibitors Using Property-Based Drug Design and Free–Wilson Analysis for Improved In Vivo Efficacy” (ACS Medicinal Chemistry Letters, 2023)
Read-outs that look alike come from different tables or passages of the source.

What was measured:
[1] = tested on: pAKT-S473 in PC-3 cells (TORC2); assay: Cellular p-AKT (ser473) AlphaScreen assay in PC-3 cells (TORC2 activity); format: cell-based, human
Experimental: The target product profile for 1 and the next-generation analogs described here was for a dual inhibitor against both TORC1 and TORC2.
FRAP1 (mTOR) recombinant protein and GFP-4E-BP1 were purchased from Invitrogen (Carlsbad, CA, US).
The kinase activity assay was conducted in 50 mM Hepes buffer containing 10 mM MgCl2, 0.01% Brij, 0.2 mM EDTA, 2 mM DTT and 1% DMSO (after compound addition) at pH 7.3.
The IC50 value for each compound was determined in the presence of compound (various concentrations, from 0 to 10 μM) and a fixed amount of ATP (50 μM, final concentration), substrate GFP-4E-BP1 (400 nM, final concentration). The enzymatic reaction was initiated by adding FRAP1 (mTOR) (2 nM, final concentration). The assay was conducted at room temperature (~22 °C). After 30 min, the enzymatic reaction was stopped using Tb-anti-p4E-BP1 (2 nM final concentration, Invitrogen) and EDTA (20 mM final concentration, Sigma) in TR-FRET dilution buffer provided by Invitrogen. All the reagents were dispensed using a Multidrop Combi reagent dispenser (ThermoFisher Scientific, Waltham, […]
The release of product was detected using a BMG PHERAstar plate reader (BMG LABTECH, Ortenberg, Germany) and the Lantha Screen module (337 nm excitation wavelength) and measuring the ratio of fluorescence 520/490 nm (emission wavelengths). Experimental data was fitted using Eq. (1):
Vi and Vo are the rates of the enzyme activity in the presence and in the absence of inhibitor; n is the Hill coefficient; I is the free inhibitor concentration; IC 50 is a measure of potency that is equivalent to a […]
Cellular p-AKT (ser473) assay in PC-3 cells
PC-3 cells (PTEN deleted, human prostate cell line) were maintained in F12K media with 10% heat-inactivated fetal bovine serum (FBS) in 37 °C, 5% CO2 incubator. This method describes the procedure […]
from Perkin Elmer (catalog# TGRAS500). On day 1, 50,000 PC-3 cells were plated in 160 µL complete […]
Plates were placed in 37 °C, 5%
CO2 incubator for 24 h. On day 2, all media was removed and replaced with 160 µL starvation media which is F12K media (no FBS) and 0.1% BSA. Plates are placed in 37 °C, 5% CO2 incubator for 16 h. On day 3, compounds were both solubilized and serially diluted in DMSO and added to a secondary plate containing starvation media. 40 µL of compound/starvation media were added to the 160 µL in cell plate and plates were placed back in the incubator for 1 h. Cells were then activated by adding 22 µL FBS (for a final concentration of 10% FBS) for 10 min in the incubator. Media was removed from the well and cells were lysed in 100 µL SureFire kit lysis buffer and then shake n for 15 min at 900 rpm. AlphaScreen […]
assay was performed according to manufacturer’s instructions. 4 µL of lysate was added to PerkinElmer 96-well Proxiplate then 5 µL of Reaction Buffer plus Activation Buffer. Plates were shaken for 2 h at room temperature. 2 µL of Donor Beads in Dilution Buffer were added to the plate and the plate was shaken for 2 h at room temperature. The plate was read using BMG Labtech PHERAstar using AlphaScreen settings. Each analog was run in duplicate wells and a single IC50 value was calculated in […]

PI3Kα = PI3Kα enzyme selectivity (PI3Kα IC50 over mTOR IC50); format: biochemical; details: ratio of PI3Kα enzyme IC50 over mTOR enzyme IC50
[2] = Human liver microsome intrinsic clearance; format: in vitro ADME; details: apparent intrinsic clearance, scaled
[3] = tested on: CYP 2C8, 1A2, 2C9, 2C19, 2D6 and 3A4; assay: CYP inhibition, all isoforms tested; format: in vitro ADME; details: human
Source text: We also desired to remove the aniline structural alert present in the aryl urea moiety, which has been associated with idiosyncratic adverse drug reactions.[16]

Rat PK (iv and po) = format: in vivo; details: for bioavailability: in vivo, 4 mg/kg; for bioavailability / Cl / Vd: iv 1 mpk; for bioavailability / Cmax: po 4 mpk in 0.5% methylcellulose; for frac. abs.: estimated from %F, Cl and Qh = 70 mL min^–1 kg^–1
Source text: This was an early indication that the strategy of increasing potency while lowering lipophilicity would allow us to meet our goal of improving prospects for favorable PK and dose.

CYP2C8 = target: T1, CYP2C8 (Homo sapiens, UniProt P10632); assay: CYP inhibition, 2C8; format: in vitro ADME; details: most potently inhibited CYP isoform
T1 sequence (P10632 1-490): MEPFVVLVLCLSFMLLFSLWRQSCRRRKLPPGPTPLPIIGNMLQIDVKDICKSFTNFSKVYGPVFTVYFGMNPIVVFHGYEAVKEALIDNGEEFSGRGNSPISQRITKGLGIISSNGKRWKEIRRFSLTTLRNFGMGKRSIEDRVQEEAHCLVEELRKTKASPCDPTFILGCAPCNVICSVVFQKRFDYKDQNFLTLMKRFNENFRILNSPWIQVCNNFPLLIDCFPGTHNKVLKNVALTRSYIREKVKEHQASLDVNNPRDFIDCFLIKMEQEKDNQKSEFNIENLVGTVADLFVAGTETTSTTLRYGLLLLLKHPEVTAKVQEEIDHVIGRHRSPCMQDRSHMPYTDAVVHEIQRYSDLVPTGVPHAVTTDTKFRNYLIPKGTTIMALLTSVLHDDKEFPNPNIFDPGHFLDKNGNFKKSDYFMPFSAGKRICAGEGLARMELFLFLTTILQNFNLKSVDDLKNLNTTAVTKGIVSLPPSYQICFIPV

CYP-2C9 = CYP-2C9 (Homo sapiens, UniProt P11712); assay: CYP inhibition, 2C9; format: in vitro ADME; details: most potently inhibited isoform was CYP-2C9
Source text: Table 3 New Combinations from Free–Wilson Analysis | column: CYP IC50/μM ^c

[4] = Homo sapiens, PC-3, PC-3 cell line, read-out: pAKT S473 Cell IC50
[5] = Homo sapiens, p-AKT S473, PC-3 cells, mean of N runs, read-out: Cell pEC50 (converted)
[6] = PC-3 cell line, read-out: pAKT S473 Cell IC50
[7] = Homo sapiens, PC-3, read-out: Cell pEC50 (converted)
[8] = Homo sapiens, PC-3, read-out: pAKT S473 Cell IC50

CYP-2C9, sequence (P11712 whole entry, canonical isoform): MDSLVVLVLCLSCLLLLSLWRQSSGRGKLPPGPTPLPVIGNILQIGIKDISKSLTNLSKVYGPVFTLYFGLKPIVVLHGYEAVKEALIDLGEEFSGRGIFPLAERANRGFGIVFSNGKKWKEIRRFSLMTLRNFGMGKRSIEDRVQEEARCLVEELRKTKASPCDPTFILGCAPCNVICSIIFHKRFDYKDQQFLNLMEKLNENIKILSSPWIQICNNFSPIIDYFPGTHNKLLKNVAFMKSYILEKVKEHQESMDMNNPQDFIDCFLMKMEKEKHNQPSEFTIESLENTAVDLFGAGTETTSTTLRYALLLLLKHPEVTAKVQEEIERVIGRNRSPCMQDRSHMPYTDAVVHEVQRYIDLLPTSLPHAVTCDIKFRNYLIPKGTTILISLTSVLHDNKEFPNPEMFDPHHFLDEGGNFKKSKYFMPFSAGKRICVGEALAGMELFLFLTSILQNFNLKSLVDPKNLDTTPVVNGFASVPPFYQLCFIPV

C[C@@]12COCCN1c1nc(-c3cccc4[nH]ccc34)ncc1N(C1CCOCC1)C2=O [4e]
IC50 [1, 4]: ≤ 30 nM
EC50 [1, 5]: 21.4 nM
IC50 [1, 6]: 21 nM
PI3Kα Sel (PI3Kα): 110x
PI3Kα Sel (PI3Kα; Table 2, unit not given): 110
HLM Clint [2]: 10 mL min^–1 kg^–1
IC50 [3]: > 40000 nM
bioavailability (Rat PK (iv and po)): 91%
Cl (Rat PK (iv and po)): 15 mL min^–1 kg^–1

C[C@@]12COCCN1c1nc(-c3cnc4[nH]ccc4c3)ncc1N(C1(CCO)CC1)C2=O [13d]
IC50 [1, 4]: 61 nM
EC50 [1, 5]: 61.7 nM
PI3Kα Sel (PI3Kα; Table 2, unit not given): 59
HLM Clint [2]: 11 mL min^–1 kg^–1

C[C@@]12COCCN1c1nc(-c3cccc4[nH]ccc34)ncc1N([C@H]1CC[C@@H](O)CC1)C2=O [14b]
IC50 [1, 4]: 14 nM
EC50 [1, 5]: 14.1 nM
PI3Ka sel. (PI3Kα): 110 ×
PI3Kα Sel (PI3Kα; Table 2, unit not given): 110
HLM Clint [2]: 6 mL min^–1 kg^–1
IC50 (CYP2C8): 4000 nM
frac. abs. (Rat PK (iv and po)): 100%
bioavailability (Rat PK (iv and po)): 100%
Cl (Rat PK (iv and po)): 11 mL min^–1 kg^–1
Vd (Rat PK (iv and po)): 3.9 L/kg
Cmax (Rat PK (iv and po)): 1400 nM

Cc1cccc2c(-c3ncc4c(n3)N3CCOC[C@@]3(C)C(=O)N4[C@H]3CC[C@H](O)CC3)c[nH]c12 [15b]
HLM Clint [2]: 7 mL min^–1 kg^–1
IC50 (CYP2C8): 3000 nM

C[C@@]12COCCN1c1nc(-c3cnc4[nH]ccc4c3)ncc1N(CC1CC1)C2=O [3b]
IC50 [1, 4]: 51 nM
EC50 [1, 5]: 51.3 nM
PI3Kα Sel (PI3Kα): 48x

C[C@@]12COCCN1c1nc(-c3ccc(NC(=O)NC4CC4)cc3)ncc1N(CC1CC1)C2=O [3a]
IC50 [1, 4]: 38 nM
EC50 [1, 5]: 38 nM
PI3Kα Sel (PI3Kα): 100x

Cc1cccc2c(-c3ncc4c(n3)N3CCOC[C@@]3(C)C(=O)N4C3CCOCC3)c[nH]c12 [4i]
IC50 [1, 4]: 9 nM
EC50 [1, 5]: 8.71 nM
PI3Kα Sel (PI3Kα): 640x
IC50 (CYP2C8): 1000 nM

C[C@@]12COCCN1c1nc(-c3cnc4[nH]ccc4c3)ncc1N(C1CCOC1)C2=O (some centres unmarked) [13a]
IC50 [1, 4]: 74 nM
EC50 [1, 5]: 74.1 nM
PI3Kα Sel (PI3Kα; Table 2, unit not given): 5
HLM Clint [2]: 12 mL min^–1 kg^–1

C[C@@]12COCCN1c1nc(-c3cnc4[nH]ccc4c3)ncc1N(CCCO)C2=O [13c]
IC50 [1, 4]: 170 nM
EC50 [1, 5]: 170 nM
PI3Kα Sel (PI3Kα; Table 2, unit not given): 9
HLM Clint [2]: 9 mL min^–1 kg^–1

C[C@@]12COCCN1c1nc(-c3cnc4cc[nH]c4c3)ncc1N(CC1CC1)C2=O [3c]
IC50 [1, 4]: 91 nM
EC50 [1, 5]: 91.2 nM
PI3Kα Sel (PI3Kα): 26x

C[C@@]12COCCN1c1nc(-c3cncc4[nH]ccc34)ncc1N(C1CCOCC1)C2=O [4f]
IC50 [1, 4]: 17 nM
EC50 [1, 5]: 16.6 nM
PI3Kα Sel (PI3Kα): 84x

C[C@@]12COCCN1c1nc(-c3cnc4[nH]ccc4c3)ncc1N(C1CCOCC1)C2=O [4b]
IC50 [1, 4]: 62 nM
EC50 [1, 5]: 61.7 nM
PI3Kα Sel (PI3Kα): 23x
PI3Kα Sel (PI3Kα; Table 2, unit not given): 23
HLM Clint [2]: 6 mL min^–1 kg^–1

Cc1ccc(-c2ncc3c(n2)N2CCOC[C@@]2(C)C(=O)N3C2CCOCC2)c2cc[nH]c12 [4g]
IC50 [1, 4]: 26 nM
EC50 [1, 5]: 25.7 nM
PI3Kα Sel (PI3Kα): 450x

C[C@@]12COCCN1c1nc(-c3cnc4[nH]ccc4c3)ncc1N(C1CCN(S(C)(=O)=O)CC1)C2=O [13e]
EC50 [1, 7]: 120 nM
IC50 [1, 8]: 120 nM
PI3Kα Sel (PI3Kα; Table 2, unit not given): 14
HLM Clint [2]: 6 mL min^–1 kg^–1

Cc1cccc2c(-c3ncc4c(n3)N3CCOC[C@@]3(C)C(=O)N4[C@H]3CC[C@@H](O)CC3)c[nH]c12 [15d]
HLM Clint [2]: 7 mL min^–1 kg^–1
IC50 (CYP2C8): 800 nM

Cc1ccc(-c2ncc3c(n2)N2CCOC[C@@]2(C)C(=O)N3[C@H]2CC[C@@H](O)CC2)c2cc[nH]c12 [15c]
HLM Clint [2]: 8 mL min^–1 kg^–1
IC50 (CYP2C8): 3000 nM

Cc1cccc2c(-c3ncc4c(n3)N3CCOC[C@@]3(C)C(=O)N4C3(CCO)CC3)c[nH]c12 [15e]
EC50 [1, 7]: 4.57 nM
IC50 ([1]; Homo sapiens, PC-3, read-out: pAKT S473 Cell IC50, PC-3 cell line): 5 nM
HLM Clint [2]: 6 mL min^–1 kg^–1
IC50 (CYP2C8): 1300 nM

C[C@@]12COCCN1c1nc(-c3cnc4cc[nH]c4c3)ncc1N(C1CCOCC1)C2=O [4c]
IC50 [1, 4]: 100 nM
EC50 [1, 5]: 105 nM
PI3Kα Sel (PI3Kα): 13x

C[C@@]12COCCN1c1nc(-c3ccc(NC(=O)NC4CC4)cc3)ncc1N(C1CCOCC1)C2=O [4a]
IC50 [1, 4]: 42 nM
EC50 [1, 5]: 41.7 nM
PI3Kα Sel (PI3Kα): 63x

Cc1ncc(-c2ncc3c(n2)N2CCOC[C@@]2(C)C(=O)N3C2CCOCC2)c2cc[nH]c12 [4h]
IC50 [1, 4]: 48 nM
EC50 [1, 5]: 47.9 nM
PI3Kα Sel (PI3Kα): 270x

Cc1ccc(-c2ncc3c(n2)N2CCOC[C@@]2(C)C(=O)N3[C@H]2CC[C@H](O)CC2)c2cc[nH]c12 [15a]
HLM Clint [2]: 6 mL min^–1 kg^–1
IC50 (CYP-2C9): 5000 nM
frac. abs. (Rat PK (iv and po)): 41%
bioavailability (Rat PK (iv and po)): 35%
Cl (Rat PK (iv and po)): 10 mL min^–1 kg^–1
Vd (Rat PK (iv and po)): 1.6 L/kg
Cmax (Rat PK (iv and po)): 570 nM

C[C@@]12COCCN1c1nc(-c3c[nH]c4ccccc34)ncc1N(C1CCOCC1)C2=O [4d]
IC50 [1, 4]: ≤ 30 nM
EC50 [1, 5]: 29.5 nM
IC50 [1, 6]: 30 nM
PI3Kα Sel (PI3Kα): 120x

COCCCN1C(=O)[C@]2(C)COCCN2c2nc(-c3cnc4[nH]ccc4c3)ncc21 [13b]
IC50 [1, 4]: 57 nM
EC50 [1, 5]: 57.5 nM
PI3Kα Sel (PI3Kα; Table 2, unit not given): 9
HLM Clint [2]: 32 mL min^–1 kg^–1

CC(=O)N1CCC(N2C(=O)[C@]3(C)COCCN3c3nc(-c4cccc5[nH]ccc45)ncc32)CC1 [14a]
EC50 [1, 7]: 55 nM
IC50 [1, 8]: 55 nM
PI3Kα Sel (PI3Kα; Table 2, unit not given): 120
HLM Clint [2]: 6 mL min^–1 kg^–1
